These results are taken from PMC3780361 (Bioorganic & medicinal chemistry, 2013).

This assay deals with M. tuberculosis strains resistant to 1. Format: cell-based.

For the molecule `CC(C)(C)c1cc(NC(=O)NC2C3CC4CC(C3)CC2C4)no1` (centres unmarked) [Compound 46, 1-(2-adamantyl)-3-(5-t-butylisoxazol-3-yl)urea], the “Cross resistance with strains resistant to 1” value is “confirmed as on target against MmpL3”.
In the case of `O=C(Nc1nnc(C2CCC2)o1)NC1C2CC3CC(C2)CC1C3` (centres unmarked) [Compound 51, 1-(2-adamantyl)-3-(5-cyclobutyl-1,3,4-oxadiazol-2-yl)urea] it was “confirmed as on target against MmpL3”.
